# Results taken from patent US20230278995A1, “1,3,4-OXADIAZOLE DERIVATIVE COMPOUNDS AS HISTONE DEACETYLASE 6 INHIBITOR, AND THE PHARMACEUTICAL COMPOSITION COMPRISING THE SAME” (CHONG KUN DANG PHARMACEUTICAL CORP., priority 2020, published 2023).
# How the values were obtained:
# [1] = target: T1, human recombinant HDAC6 (Homo sapiens, UniProt Q9UBN7); assay: HDAC enzyme activity inhibition assay (HDAC Fluorimetric Drug Discovery Kit), HDAC6; format: biochemical; details: for HDAC6 selectivity (fold): HDAC1 vs HDAC6; for IC50: human recombinant HDAC6, same protocol as HDAC1
# T1 construct: purchased Calbiochem Inc. 382180
# T1 sequence (Q9UBN7 1-1215): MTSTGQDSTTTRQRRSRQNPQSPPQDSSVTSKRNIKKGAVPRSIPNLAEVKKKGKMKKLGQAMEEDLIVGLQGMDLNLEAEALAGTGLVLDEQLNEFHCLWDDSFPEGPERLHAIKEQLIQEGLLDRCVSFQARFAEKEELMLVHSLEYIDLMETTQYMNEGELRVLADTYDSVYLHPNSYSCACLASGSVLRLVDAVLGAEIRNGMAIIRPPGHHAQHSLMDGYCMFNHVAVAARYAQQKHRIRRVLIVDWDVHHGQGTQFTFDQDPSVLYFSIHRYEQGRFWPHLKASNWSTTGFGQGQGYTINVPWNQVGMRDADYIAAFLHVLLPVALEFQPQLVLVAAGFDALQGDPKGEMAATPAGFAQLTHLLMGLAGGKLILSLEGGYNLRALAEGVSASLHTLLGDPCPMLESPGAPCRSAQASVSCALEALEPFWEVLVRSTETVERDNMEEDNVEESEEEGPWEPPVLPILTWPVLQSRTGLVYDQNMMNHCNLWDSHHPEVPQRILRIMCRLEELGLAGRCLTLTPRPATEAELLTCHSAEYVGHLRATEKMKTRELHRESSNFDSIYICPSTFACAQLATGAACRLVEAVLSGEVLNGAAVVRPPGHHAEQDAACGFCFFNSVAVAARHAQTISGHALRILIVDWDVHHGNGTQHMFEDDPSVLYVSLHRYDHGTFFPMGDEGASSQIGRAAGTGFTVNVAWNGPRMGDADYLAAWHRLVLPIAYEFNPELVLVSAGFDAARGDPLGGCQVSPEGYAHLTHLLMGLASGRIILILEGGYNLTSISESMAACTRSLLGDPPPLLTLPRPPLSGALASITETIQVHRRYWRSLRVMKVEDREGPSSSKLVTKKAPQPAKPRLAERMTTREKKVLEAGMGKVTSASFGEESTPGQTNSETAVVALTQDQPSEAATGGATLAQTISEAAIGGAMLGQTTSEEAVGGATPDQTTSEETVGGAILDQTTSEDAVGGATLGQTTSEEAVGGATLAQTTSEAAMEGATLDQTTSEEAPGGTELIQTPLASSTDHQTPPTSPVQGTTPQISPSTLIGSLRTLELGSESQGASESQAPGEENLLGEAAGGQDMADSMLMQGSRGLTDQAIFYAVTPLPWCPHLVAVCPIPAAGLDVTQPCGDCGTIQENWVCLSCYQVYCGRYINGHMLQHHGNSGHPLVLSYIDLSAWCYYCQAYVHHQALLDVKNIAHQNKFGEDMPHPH
# Procedure, shortened: (§1)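 The preceding reaction ran 60 min at 30 °C with 0.3 μg recombinant human enzyme, HDAC1 or HDAC6 under an identical protocol, and 10 μM Fluor de Lys-SIRT1 substrate, across 5-fold diluted compound.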
# [2] = target: T2, human recombinant HDAC1 (Homo sapiens, UniProt Q13547); assay: HDAC enzyme activity inhibition assay (HDAC Fluorimetric Drug Discovery Kit), HDAC1; format: biochemical; details: human recombinant HDAC1, Fluor de Lys-SIRT1 substrate, 30° C. 60 minutes
# T2 construct: purchased Enzo Life Sciences, Inc. BML-SE456
# T2 sequence (Q13547 whole entry): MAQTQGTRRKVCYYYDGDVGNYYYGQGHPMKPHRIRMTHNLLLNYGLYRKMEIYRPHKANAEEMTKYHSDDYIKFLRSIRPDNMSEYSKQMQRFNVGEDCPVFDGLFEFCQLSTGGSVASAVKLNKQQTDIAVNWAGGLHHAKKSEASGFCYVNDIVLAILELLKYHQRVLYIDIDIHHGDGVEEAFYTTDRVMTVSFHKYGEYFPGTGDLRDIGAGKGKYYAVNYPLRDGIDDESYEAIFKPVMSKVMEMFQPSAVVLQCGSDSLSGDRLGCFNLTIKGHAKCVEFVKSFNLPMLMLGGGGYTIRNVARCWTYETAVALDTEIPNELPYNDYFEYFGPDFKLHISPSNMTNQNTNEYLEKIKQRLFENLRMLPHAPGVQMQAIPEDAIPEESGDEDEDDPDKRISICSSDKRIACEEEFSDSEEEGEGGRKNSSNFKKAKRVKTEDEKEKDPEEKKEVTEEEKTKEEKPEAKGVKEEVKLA
# Procedure, shortened: as §1
SMILES,HDAC6 selectivity (fold) [1],IC50 [1] [nM],IC50 [2] [nM]
"CCCCN1CC(N2CCC(F)(C(=O)N(Cc3ccc(-c4nnc(C(F)F)o4)cn3)c3cccc(F)c3)CC2)C1 [Compound 3391, 1-(1-butylazetidine-3-yl)-N-((5-(5-(difluoromethyl)-1,3,4-oxadiazol-2-yl)pyridin-2-yl)methyl)-4-fluoro-N-(3-fluorophenyl)piperidine-4-carboxamide]","1,361 fold",20.9,28500
"CCCN1CC(N2CC(F)(C(=O)N(Cc3ccc(-c4nnc(C(F)F)o4)cn3)c3ccccc3)C2)C1 [Compound 3107, N-((5-(5-(difluoromethyl)-1,3,4-oxadiazol-2-yl)pyridin-2-yl)methyl)-3-fluoro-N-phenyl-1′-propyl-[1,3′-biazetidine]-3-carboxamide]","1,059 fold",47.2,> 50000
"CC(=O)N1CCC(F)(C(=O)N(Cc2ccc(-c3nnc(C(F)F)o3)cc2F)c2ccccc2)CC1 [Compound 3438, 1-acetyl-N-(4-(5-(difluoromethyl)-1,3,4-oxadiazol-2-yl)-2-fluorobenzyl)-4-fluoro-N-phenylpiperidine-4-carboxamide]",302 fold,166,> 50000
"CCC(=O)N1CC(F)(C(=O)N(Cc2ccc(-c3nnc(C(F)F)o3)cc2F)c2ccccc2)C1 [Compound 3433, N-(4-(5-(difluoromethyl)-1,3,4-oxadiazol-2-yl)-2-fluorobenzyl)-3-fluoro-N-phenyl-1-propionylazetidine-3-carboxamide]",448 fold,85.9,38500
"CC(C)N1CC(F)(C(=O)N(Cc2ccc(-c3nnc(C(F)F)o3)cc2F)c2ccccc2)C1 [Compound 3431, N-(4-(5-(difluoromethyl)-1,3,4-oxadiazol-2-yl)-2-fluorobenzyl)-3-fluoro-1-isopropyl-N-phenylazetidine-3-carboxamide]",544 fold,91.8,> 50000
"CC(C)C(=O)N1CC(F)(C(=O)N(Cc2ccc(-c3nnc(C(F)F)o3)cc2F)c2ccccc2)C1 [Compound 3434, N-(4-(5-(difluoromethyl)-1,3,4-oxadiazol-2-yl)-2-fluorobenzyl)-3-fluoro-1-isobutyryl N-phenylazetidine-3-carboxamide]",441 fold,113,> 50000
"CC(C)N1CCC(F)(C(=O)N(Cc2ccc(-c3nnc(C(F)F)o3)cn2)c2ccccc2)CC1 [Compound 2952, N-((5-(5-(difluoromethyl)-1,3,4-oxadiazol-2-yl)pyridin-2-yl)methyl)-4-fluoro-1-isopropyl-N-phenylpiperidine-4-carboxamide]",504 fold,99.1,> 50000
"CCCCN1CCC(N2CC(F)(C(=O)N(Cc3ccc(-c4nnc(C(F)F)o4)cn3)c3ccccc3)C2)CC1 [Compound 3113, 1-(1-butylpiperidin-4-yl)-N-((5-(5-(difluoromethyl)-1,3,4-oxadiazol-2-yl)pyridin-2-yl)methyl)-3-fluoro-N-phenylazetidine-3-carboxamide]","1,543 fold",32.4,> 50000
"CCCCN1CC(F)(C(=O)N(Cc2ccc(-c3nnc(C(F)F)o3)cn2)c2ccccc2)C1 [Compound 3003, 1-butyl-N-((5-(5-(difluoromethyl)-1,3,4-oxadiazol-2-yl)pyridin-2-yl)methyl)-3-fluoro-N-phenylazetidine-3-carboxamide]",735 fold,37.4,27500
"O=C(N(Cc1ccc(-c2nnc(C(F)F)o2)cn1)c1cccc(F)c1)C1(F)CN(C2CN(C3CCCCC3)C2)C1 [Compound 3398, 1′-cyclohexyl-N-((5-(5-(difluoromethyl)-1,3,4-oxadiazol-2-yl)pyridin-2-yl)methyl)-3-fluoro-N-(3-fluorophenyl)-[1,3′-biazetidine]-3-carboxamide]","1,374 fold",20,27500

# Results, then the compound that gave them:
HDAC6 selectivity (fold) [1],IC50 [1] [nM],IC50 [2] [nM],SMILES
"1,612 fold",31,> 50000,"CN(C)CCC(=O)N1CC(F)(C(=O)N(Cc2ccc(-c3nnc(C(F)F)o3)cn2)c2cccc(F)c2)C1 [Compound 3097, N-((5-(5-(difluoromethyl)-1,3,4-oxadiazol-2-yl)pyridin-2-yl)methyl)-1-(3-(dimethylamino)propanoyl)-3-fluoro-N-(3-fluorophenyl)azetidine-3-carboxamide]"
196 fold,254,> 50000,"CN1CC(F)(C(=O)N(Cc2ccc(-c3nnc(C(F)(F)F)o3)cn2)c2cccc(F)c2)C1 [Compound 6891, 3-fluoro-N-(3-fluorophenyl)-1-methyl-N-((5-(5-(trifluoromethyl)-1,3,4-oxadiazol-2-yl)pyridin-2-yl)methyl)azetidine-3-carboxamide]"
"1,326 fold",37.7,> 50000,CC(C)N1CC(N2CC(F)(C(=O)N(Cc3ccc(-c4nnc(C(F)F)o4)cn3)c3cccc(F)c3)C2)C1 [Compound 3224]
"2,192 fold",22.8,> 50000,"O=C(N(Cc1ccc(-c2nnc(C(F)F)o2)cn1)c1cccc(F)c1)C1(F)CN(C2CCSCC2)C1 [Compound 3172, N-((5-(5-(difluoromethyl)-1,3,4-oxadiazol-2-yl)pyridin-2-yl)methyl)-3-fluoro-N-(3-fluorophenyl)-1-(tetrahydro-2H-thiopyran-4-yl)azetidine-3-carboxamide]"
854 fold,58.5,> 50000,"O=C(N(Cc1ccc(-c2nnc(C(F)F)o2)cn1)c1cccc(F)c1)C1(F)CN(C2CCOC2)C1 (stereo not drawn) [Compound 3052, N-((5-(5-(difluoromethyl)-1,3,4-oxadiazol-2-yl)pyridin-2-yl)methyl)-3-fluoro-N-(3-fluorophenyl)-1-(tetrahydrofuran-3-yl)azetidine-3-carboxamide]"
"2,808 fold",17.8,> 50000,"O=C(C1CCCC1)N1CC(F)(C(=O)N(Cc2ccc(-c3nnc(C(F)F)o3)cn2)c2cccc(F)c2)C1 [Compound 3169, 1-(cyclopentanecarbonyl)-N-((5-(5-(difluoromethyl)-1,3,4-oxadiazol-2-yl)pyridin-2-yl)methyl)-3-fluoro-N-(3-fluorophenyl)azetidine-3-carboxamide]"
242 fold,85.7,20800,"CN1CC(F)(C(=O)N(Cc2ccc(-c3nnc(C(F)F)o3)cn2)c2cccc(F)c2)C1 [Compound 3047, N-((5-(5-(difluoromethyl)-1,3,4-oxadiazol-2-yl)pyridin-2-yl)methyl)-3-fluoro-N-(3-fluorophenyl)-1-methylazetidine-3-carboxamide]"
"1,075 fold",46.5,> 50000,"CN1CC(F)(C(=O)N(Cc2ccc(-c3nnc(C(F)F)o3)cn2)c2ccccc2)C1 [Compound 2973, N-((5-(5-(difluoromethyl)-1,3,4-oxadiazol-2-yl)pyridin-2-yl)methyl)-3-fluoro-1-methyl-N-phenylazetidine-3-carboxamide]"
